Columns and labels:
Type in all cases: in vivo, human
hyposmic patients = test: Subjective responses in smell, flavor and taste function (1-100 scale) after oral theophylline
Excerpt: The term “subjective improvement” as used herein and its grammatical equivalents can refer to measurements of improvement in perception for all external odors based upon a scale of 1-100 with 100 indicating complete recovery of normal smell function with responses from 1-100 scaled appropriately. […] Subjective improvement in taste function can also be measured with changes in taste for salt, sweet, sour and bitter tastants measured on the same 1-100 scale with 100 indicating return to normal for each of the four tastants considered and responses <100 scaled consistently less.
Thirty-one of the hyposmic patients were treated with oral theophylline with a dose range of 200-800 mg taken over a period of 2-10 months. These patients were 18 men, aged 12-78 y, 62+5 y, with six with PIHH, 10 with allergic rhinitis, one with congenital smell loss and one post anesthesia and 13 women, aged 12-67 y, 42±6 y, with four with PIHH, one with allergic rhinitis and eight with congenital smell loss. Improvement in smell function consisted of improvement in both subjective responses to oral theophylline and in olfactometry. Subjective improvement in smell function consisted of measurements of improvement in perception for all external odors based upon a scale of 1-100 with 100 indicating complete recovery of normal smell function with responses from 1-100 scaled appropriately. […] Subjective improvement in taste function was also measured with changes in taste for salt, sweet, sour and bitter tastants measured on the same 1-100 scale with 100 indicating return to normal for each of the four tastants considered and responses <100 scaled consistently less. Improvement by olfactometry was indicated by decreased DT or RT (increased sensitivity), increased ME (increased sensitivity) and changes in H consistent with decreased distortions.

[1] = Serum theophylline level by fluorescence polarization
Method: (§1) Serum theophylline levels were measured by fluorescence polarization at each treatment condition. Body weight was measured with a calibrated clinical scale during each study condition and reported at the final measurement in each study condition.

[2] = Body weight with calibrated clinical scale; conditions: 10 patients
Method: as §1

[3] = 31 patients, oral theophylline, listed as ORAL THEOPHYLLINE
[4] = 31 patients, oral theophylline, listed as oral theophylline
[5] = oral theophylline, scale 1-100, listed as ORAL THEOPHYLLINE
[6] = oral theophylline, scale 1-100, listed as oral theophylline

## Cn1c(=O)c2[nH]cnc2n(C)c1=O [theophylline]
Hyposmic patients; 31 patients, oral theophylline
  FLAVOR FUNCTION IMPROVED, number of patients: 19
  FLAVOR FUNCTION NOT IMPROVED, % of patients studied: [39] %
  FLAVOR FUNCTION NOT IMPROVED, number of patients: 12
  SMELL FUNCTION NOT IMPROVED, % of patients studied: [39] %
  SMELL FUNCTION NOT IMPROVED, number of patients: 12
  TASTE FUNCTION IMPROVED, number of patients: 20
  TASTE FUNCTION NOT IMPROVED, % of patients studied: [36] %
  TASTE FUNCTION NOT IMPROVED, number of patients: 11
Hyposmic patients; 31 patients, oral theophylline 200-800 mg for 2-10 months
  SMELL FUNCTION IMPROVED, number of patients: 19
Hyposmic patients; 31 patients, oral theophylline 200-800 mg for 2-10 months, listed as ORAL THEOPHYLLINE
  SMELL FUNCTION IMPROVED, % of patients studied: [61] %
Hyposmic patients; 31 patients, oral theophylline 200-800 mg for 2-10 months, listed as oral theophylline
  SMELL FUNCTION IMPROVED, % of patients studied: 61%
Hyposmic patients; [3]
  FLAVOR FUNCTION IMPROVED, % of patients studied: [61] %
  TASTE FUNCTION IMPROVED, % of patients studied: [64]^d %
Hyposmic patients; [4]
  FLAVOR FUNCTION IMPROVED, % of patients studied: 61%
  TASTE FUNCTION IMPROVED, % of patients studied: 64%
Hyposmic patients; improved patients (19), scale 1-100
  SMELL FUNCTION IMPROVED, RESPONSE RANGE: 2-100%
Hyposmic patients; improved patients (19), scale 1-100, listed as ORAL THEOPHYLLINE
  SMELL FUNCTION IMPROVED, RESPONSE Mean ± SEM: 34 ± 6%
Hyposmic patients; improved patients (19), scale 1-100, listed as oral theophylline
  SMELL FUNCTION IMPROVED, RESPONSE Mean ± SEM: 34±6%
Hyposmic patients; oral theophylline
  FLAVOR FUNCTION NOT IMPROVED, RESPONSE Mean ± SEM: 0
  FLAVOR FUNCTION NOT IMPROVED, RESPONSE RANGE: 0%
  SMELL FUNCTION IMPROVED MEN, number of patients: 11
  SMELL FUNCTION NOT IMPROVED, RESPONSE Mean ± SEM: 0
  SMELL FUNCTION NOT IMPROVED, RESPONSE RANGE: 0%
  TASTE FUNCTION NOT IMPROVED, RESPONSE Mean ± SEM: 0
  TASTE FUNCTION NOT IMPROVED, RESPONSE RANGE: 0%
Hyposmic patients; oral theophylline, scale 1-100
  FLAVOR FUNCTION IMPROVED, RESPONSE Mean ± SEM: 43 ± 8
  FLAVOR FUNCTION IMPROVED, RESPONSE RANGE: 1-100%
  SMELL FUNCTION IMPROVED MEN, RESPONSE RANGE: 3-95%
  SMELL FUNCTION IMPROVED WOMEN, RESPONSE RANGE: 2-100%
  TASTE FUNCTION IMPROVED, RESPONSE Mean ± SEM: 47 ± 8
  TASTE FUNCTION IMPROVED, RESPONSE RANGE: 3-100%
Hyposmic patients; [5]
  SMELL FUNCTION IMPROVED MEN, RESPONSE Mean ± SEM: 27 ± 9%
  SMELL FUNCTION IMPROVED WOMEN, RESPONSE Mean ± SEM: 43 ± 17%
Hyposmic patients; [6]
  SMELL FUNCTION IMPROVED MEN, RESPONSE Mean ± SEM: 27±9%
  SMELL FUNCTION IMPROVED WOMEN, RESPONSE Mean ± SEM: 43±17%
Hyposmic patients; oral theophylline, listed as ORAL THEOPHYLLINE
  SMELL FUNCTION IMPROVED WOMEN, number of patients: 8
Hyposmic patients; oral theophylline, listed as oral theophylline
  SMELL FUNCTION IMPROVED WOMEN, number of patients: eight
[1]; during oral treatment, at time of maximum improvement, 10 patients
  mean (SEM) serum theophylline level: 6.4 (2.0) mg/L
[1]; human, serum, other: intranasal, 20 μg per naris, during intranasal treatment
  concentration at 4 weeks: 0 ng/mL
[2]; after intranasal treatment
  weight increase from pretreatment values, mean (SEM): 2.5 (0.5) kg
[2]; after oral treatment
  weight increase from pretreatment values, mean (SEM): 1.5 (0.4) kg
